Data as given in patent US20250387400A1, “TYK2 INHIBITORS” (BIOGEN MA INC., priority 2022, published 2025).
pIC50: −log10 of the molar value. Counter-ions that a name gives are not always drawn. Like-named read-outs stand apart in the source and are kept apart here.

Columns and labels:
Format in all cases: biochemical
[1] = target: T1, catalytic kinase (JH1) domain of human JAK2 (Homo sapiens, UniProt O60674); assay: ADP-Glo kinase assay, JAK2 kinase domain; conditions: for IC50: 0.2 nM recombinant JAK2 kinase domain, 50 μM JAK3-974 peptide, 15 μM ATP, 100 minutes, read-out: JAK2 biochem IC50 (nM) Mean
T1 construct: Catalytic activities of recombinant JAK2, JAK3 and TYK2 kinase domain
T1 sequence (O60674 849-1124 limits assumed): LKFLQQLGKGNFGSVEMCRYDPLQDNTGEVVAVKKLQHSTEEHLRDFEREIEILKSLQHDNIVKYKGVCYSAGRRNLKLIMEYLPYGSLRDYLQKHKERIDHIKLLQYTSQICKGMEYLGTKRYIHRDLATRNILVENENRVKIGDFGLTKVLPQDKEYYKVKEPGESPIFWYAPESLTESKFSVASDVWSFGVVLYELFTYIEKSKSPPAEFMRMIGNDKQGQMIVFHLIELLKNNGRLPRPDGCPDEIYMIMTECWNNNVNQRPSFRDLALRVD
Experimental: (§1) As summarized in Table 3 below, compounds of the disclosure were assessed for their ability to inhibit TYK2, JAK1, JAK2, and JAK3 activity.
(§2) The kinase activity of recombinantly generated catalytic kinase (also known as JH1) domain of human JAK1, JAK2, JAK3 and TYK2 were evaluated in a plate-based assay using the ADP-Glo™ Kinase Assay platform. […] The reactions proceed for 100 minutes and the catalytic activity is quantified by first depleting the unused ATP, converting the hydrolyzed ADP into ATP to generate luminescence in a luciferase reaction; which is the basis of the ADP-Glo platform. Compounds are tested at either 10 μM or 1 μM top concentration, 11 points of 3-fold dilution. The data is normalized and the percent activity versus log concentration of compound is fitted with a 4-parameter logistic model to generate a curve and an IC50 value.

[2] = target: T2, catalytic kinase (JH1) domain of human JAK3 (Homo sapiens, UniProt P52333); assay: ADP-Glo kinase assay, JAK3 kinase domain; conditions: for IC50: 0.3 nM recombinant JAK3 kinase domain, 50 μM JAK3-974 peptide, 4 μM ATP, 100 minutes, read-out: JAK3 biochem IC50 (nM) Mean
T2 construct: Catalytic activities of recombinant JAK2, JAK3 and TYK2 kinase domain
T2 sequence (P52333 822-1111 limits assumed): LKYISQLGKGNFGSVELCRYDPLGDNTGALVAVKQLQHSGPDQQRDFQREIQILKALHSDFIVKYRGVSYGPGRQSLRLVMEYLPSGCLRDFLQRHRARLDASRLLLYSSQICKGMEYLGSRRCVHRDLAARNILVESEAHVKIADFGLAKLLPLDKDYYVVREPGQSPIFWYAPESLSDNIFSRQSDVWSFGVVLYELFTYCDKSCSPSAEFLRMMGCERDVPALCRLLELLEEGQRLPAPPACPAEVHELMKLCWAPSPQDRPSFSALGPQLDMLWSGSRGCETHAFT
Experimental: as §1, §2

[3] = target: T3, catalytic kinase (JH1) domain of human JAK1 (Homo sapiens, UniProt P23458); assay: ADP-Glo kinase assay, JAK1 kinase domain; conditions: for IC50: 4 nM recombinant JAK1 kinase domain, 50 μM JAK3-342 peptide, 35 μM ATP, 100 minutes, read-out: JAK1 biochem IC50 (nM) Mean
T3 construct: 4 nM of recombinant JAK1 kinase domain is used to phosphorylate
T3 sequence (P23458 875-1153 limits assumed): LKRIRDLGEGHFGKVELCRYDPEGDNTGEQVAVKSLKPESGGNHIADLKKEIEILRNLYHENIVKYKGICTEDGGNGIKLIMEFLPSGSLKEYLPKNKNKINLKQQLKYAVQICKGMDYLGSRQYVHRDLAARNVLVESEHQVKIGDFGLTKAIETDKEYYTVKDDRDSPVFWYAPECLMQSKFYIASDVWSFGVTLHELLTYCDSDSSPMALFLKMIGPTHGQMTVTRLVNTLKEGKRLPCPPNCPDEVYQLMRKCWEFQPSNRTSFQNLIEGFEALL
Experimental: as §1, §2

[4] = target: T4, catalytic kinase (JH1) domain of human TYK2 (Homo sapiens, UniProt P29597); assay: ADP-Glo kinase assay, TYK2 kinase domain; conditions: for IC50: 2 nM recombinant TYK2 kinase domain, 50 μM JAK3-974 peptide, 10 μM ATP, 100 minutes, read-out: TYK2 biochem IC50 (nM) Mean
T4 construct: recombinantly generated catalytic kinase (also known as JH1) domain of human JAK1, JAK2, JAK3 and TYK2
T4 sequence (P29597 897-1176 limits assumed): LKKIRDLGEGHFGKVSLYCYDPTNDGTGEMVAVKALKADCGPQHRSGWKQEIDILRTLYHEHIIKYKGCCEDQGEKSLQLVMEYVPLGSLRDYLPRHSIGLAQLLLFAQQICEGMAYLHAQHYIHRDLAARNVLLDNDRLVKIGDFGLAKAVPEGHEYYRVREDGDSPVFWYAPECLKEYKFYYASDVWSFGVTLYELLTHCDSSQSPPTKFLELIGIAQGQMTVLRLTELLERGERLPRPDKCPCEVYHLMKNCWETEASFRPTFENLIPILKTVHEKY
Experimental: as §1, §2

Structure (SMILES) | IC50 [1] | IC50 [2] | IC50 [3] | IC50 [4] | pIC50 [1] | pIC50 [2] | pIC50 [3] | pIC50 [4]
COCC[C@]1(C#N)C[C@H](N2C3CCC2CN(c2ccnn4cc(-c5cnn(C)c5)cc24)C3)C1 [Example 38, (1r,3r)-1-(2-methoxyethyl)-3-(3-(6-(1-methyl-1H-pyrazol-4-yl)pyrrolo[1,2-b]pyridazin-4-yl)-3,8-diazabicyclo[3.2.1]octan-8-yl)cyclobutane-1-carbonitrile] | 1100 nM | 7300 nM | 1400 nM | 185 nM | – | – | – | –
Cc1cc(-c2cc3c(N4CC5CCC(C4)N5[C@H]4C[C@@H](C#N)C4)ccnn3c2)on1 [Example 59, (1S,3s)-3-(3-(6-(3-methylisoxazol-5-yl)pyrrolo[1,2-b]pyridazin-4-yl)-3,8-diazabicyclo[3.2.1]octan-8-yl)cyclobutane-1-carbonitrile] | – | – | – | – | 7.59 | 6.66 | 7.18 | 8.37
Cn1cc(-c2cc3c(N4CC5CCC(C4)N5[C@H]4C[C@@H](S(C)(=O)=O)C4)ccnn3c2)cn1 [Example 36, 6-(1-methyl-1H-pyrazol-4-yl)-4-(8-((1s,3s)-3-(methylsulfonyl)cyclobutyl)-3,8-diazabicyclo[3.2.1]octan-3-yl)pyrrolo[1,2-b]pyridazine] | – | – | – | – | 6.62 | 5.77 | 6.36 | 7.30
N#CC1CC(N2C3CCC2CN(c2ccnn4cc(-c5ccnnc5)cc24)C3)C1 (centres unmarked) [Example 55, 3-(3-(6-(pyridazin-4-yl)pyrrolo[1,2-b]pyridazin-4-y1)-3,8-diazabicyclo[3.2.1]octan-8-yl)cyclobutane-1-carbonitrile] | – | – | – | – | 7.09 | 6.20 | 6.89 | 7.94
CO[C@H]1C[C@@H](N2C3CCC2CN(c2ccnn4cc(-c5cnn(C)c5)cc24)C3)C1 [Example 30, 4-(8-((1s,3S)-3-methoxycyclobutyl)-3,8-diazabicyclo[3.2.1]octan-3-yl)-6-(1-methyl-1H-pyrazol-4-yl)pyrrolo[1,2-b]pyridazine] | 4670 nM | > 10000 nM | > 10000 nM | 367 nM | – | – | – | –
CN1CC(N2C3CCC2CN(c2ccnc4[nH]c(-c5cnn(C)c5)nc24)C3)C1 [Example 12, 2-(1-methyl-1H-pyrazol-4-yl)-7-(8-(1-methylazetidin-3-yl)-3,8-diazabicyclo[3.2.1]octan-3-yl)-3H-imidazo[4,5-b]pyridine trifluoroacetate] | 2300 nM | > 10000 nM | 2850 nM | 580 nM | – | – | – | –
c1cc(-c2cc3c(N4CC5CCC(C4)N5C4COC4)ccnn3c2)cnn1 [Example 56, 4-(8-(oxetan-3-yl)-3,8-diazabicyclo[3.2.1]octan-3-yl)-6-(pyridazin-4-yl)pyrrolo[1,2-b]pyridazine] | 950 nM | > 10000 nM | 820 nM | 90 nM | – | – | – | –
Cn1cc(-c2nc3c(N4CC5CCC(C4)N5[C@H]4C[C@H](C#N)C4)ccnc3[nH]2)cn1 [Example 3, (1R,3r)-3-(3-(2-(1-methyl-1H-pyrazol-4-yl)-3H-imidazo[4,5-b]pyridin-7-yl)-3,8-diazabicyclo[3.2.1]octan-8-yl)cyclobutane-1-carbonitrile] | 236 nM | 1450 nM | 430 nM | 44 nM | – | – | – | –
Cc1cc(-c2cc3c(N4CC5CCC(C4)N5C4CC(C#N)C4)ccnn3c2)cnn1 (centres unmarked) [Example 57, 3-(3-(6-(6-methylpyridazin-4-yl)pyrrolo[1,2-b]pyridazin-4-yl)-3,8-diazabicyclo[3.2.1]octan-8-yl)cyclobutane-1-carbonitrile] | 108 nM | 690 nM | 134 nM | 13 nM | – | – | – | –
Cn1cc(-c2cc3c(N4CC5CCC(C4)N5C4(CC#N)COC4)ccnn3c2)cn1 [Example 20, 2-(3-(3-(6-(1-methyl-1H-pyrazol-4-yl)pyrrolo[1,2-b]pyridazin-4-yl)-3,8-diazabicyclo[3.2.1]octan-8-yl)oxetan-3-yl)acetonitrile] | 265 nM | 1400 nM | 520 nM | 40.5 nM | – | – | – | –
Cn1cc(-c2cc3c(N4CC5CCC(C4)N5C4CC5(COC5)C4)ccnn3c2)cn1 [Example 33, 4-(8-(2-oxaspiro[3.3]heptan-6-yl)-3,8-diazabicyclo[3.2.1]octan-3-yl)-6-(1-methyl-1H-pyrazol-4-yl)pyrrolo[1,2-b]pyridazine] | – | – | – | – | 6.13 | 5.21 | 5.87 | 7.37
Cn1cc(-c2nc3c(N4CC5CCC(C4)N5[C@H]4CC[C@@H]4O)ccnc3[nH]2)cn1 (single isomer, unassigned) [Example 7, (1RS,2RS)-2-(3-(2-(1-methyl-1H-pyrazol-4-yl)-3H-imidazo[4,5-b]pyridin-7-yl)-3,8-diazabicyclo[3.2.1]octan-8-yl)cyclobutan-1-ol] | 3300 nM | > 10000 nM | > 10000 nM | 610 nM | – | – | – | –
Cn1cc(-c2cc3c(N4CC5CCC(C4)N5[C@H]4C[C@@H](C#N)C4)ccnc3[nH]2)cn1 [Example 16, (1S,3s)-3-(3-(2-(1-methyl-1H-pyrazol-4-yl)-1H-pyrrolo[2,3-b]pyridin-4-yl)-3,8-diazabicyclo[3.2.1]octan-8-yl)cyclobutane-1-carbonitrile] | 117 nM | 550 nM | 315 nM | 17.5 nM | – | – | – | –
Cn1cc(-c2cc3c(N4CC5CCC(C4)N5[C@H]4C[C@H](O)C4)ccnn3c2)cn1 [Example 31, (1R,3r)-3-(3-(6-(1-methyl-1H-pyrazol-4-yl)pyrrolo[1,2-b]pyridazin-4-yl)-3,8-diazabicyclo[3.2.1]octan-8-yl)cyclobutan-1-ol] | 4000 nM | > 10000 nM | 9200 nM | 205 nM | – | – | – | –
Cn1cc(-c2cc3c(N4CC5CCC(C4)N5[C@H]4CC[C@H]4O)ccnn3c2)cn1 (racemic) [Example 50, rac-(1R,2S)-2-(3-(6-(1-methyl-1H-pyrazol-4-yl)pyrrolo[1,2-b]pyridazin-4-yl)-3,8-diazabicyclo[3.2.1]octan-8-yl)cyclobutan-1-ol] | 7350 nM | > 10000 nM | > 10000 nM | 505 nM | – | – | – | –
COc1cc(-c2cc3c(N4CC5CCC(C4)N5[C@H]4C[C@@H](C#N)C4)ccnc3[nH]2)ccn1 [Example 14, (1S,3s)-3-(3-(2-(2-methoxypyridin-4-yl)-1H-pyrrolo[2,3-b]pyridin-4-yl)-3,8-diazabicyclo[3.2.1]octan-8-yl)cyclobutane-1-carbonitrile] | – | – | – | – | 6.77 | 5.74 | 6.69 | 7.67
COC[C@]1(C#N)C[C@@H](N2C3CCC2CN(c2ccnn4cc(-c5cnn(C)c5)cc24)C3)C1 [Example 43, (1r,3r)-1-(methoxymethyl)-3-(3-(6-(1-methyl-1H-pyrazol-4-yl)pyrrolo[1,2-b]pyridazin-4-yl)-3,8-diazabicyclo[3.2.1]octan-8-yl)cyclobutane-1-carbonitrile] | 39 nM | 260 nM | 73 nM | 3.7 nM | – | – | – | –
CO[C@H]1C[C@@H](N2C3CCC2CN(c2ccnc4[nH]c(-c5cnn(C)c5)nc24)C3)C1 [Example 6, 7-(8-((1s,3S)-3-methoxycyclobutyl)-3,8-diazabicyclo[3.2.1]octan-3-yl)-2-(1-methyl-1H-pyrazol-4-yl)-3H-imidazo[4,5-b]pyridine] | 1150 nM | > 10000 nM | 1800 nM | 305 nM | – | – | – | –
Cn1cc(-c2cc3c(N4CC5CCC(C4)N5[C@H]4C[C@H](CC#N)C4)ccnn3c2)cn1 [Example 45, 2-((1r,3r)-3-(3-(6-(1-methyl-1H-pyrazol-4-yl)pyrrolo[1,2-b]pyridazin-4-yl)-3,8-diazabicyclo[3.2.1]octan-8-yl)cyclobutyl)acetonitrile] | 2700 nM | 9400 nM | 2400 nM | 195 nM | – | – | – | –
Cn1cc(-c2cc3c(N4CC5CCC(C4)N5[C@H]4C[C@H](C#N)C4)ncnc3[nH]2)cn1 [Example 63, (1R,3r)-3-(3-(6-(1-methyl-1H-pyrazol-4-yl)-7H-pyrrolo[2,3-d]pyrimidin-4-yl)-3,8-diazabicyclo[3.2.1]octan-8-yl)cyclobutane-1-carbonitrile] | 1800 nM | 1650 nM | 4250 nM | 260 nM | – | – | – | –
